According to patent publication US20240025849A1 (MAX DELBRÜCK-CENTRUM FÜR MOLEKULARE MEDIZIN IN DER …, priority 2020, published 2024):
“And” between values parts separate entries of the source, which are not always exact repeats. Identical values can stand only once. “Also recorded” adds a separate entry of the source. Like-named read-outs stand apart in the source and are kept apart here.

Columns and labels:
[1] = test system: primary cultured neonatal microglia; assay: LPS induced NO release, Griess assay, laboratory scaled setup; format: cell-based, mouse; conditions: for IC50: 96 well plate, 1 h C1, then 1 μg/ml LPS 48 h, 2 nM to 20 μM, read-out: IC50, LPS induced NO release
Procedure: (§1) Primary cultured neonatal microglia. For preparation of cultured neonatal microglia, P0-P3 mice were used. 10 brains were extracted, meninges and cerebellum were removed and put on ice with Hank's balanced salt solution (HBSS). The dissected brains were washed 3 times before adding 400 μL trypsin (0.1 mg/L) and DNAse (5 μg/L) in phosphate buffered saline (PBS). After 2 min of incubation with this solution, the reaction was blocked by adding plain medium. After removal of the medium, 1 mg DNAse was added and the cells were mechanically dissociated, with a Pasteur pipette followed by a glass pipette. The cells were centrifuged for 10 min at 129 g at 4° C. The supernatant was discarded. The pellet was resuspended in plain medium and plated (2.5 brains/flask) in Poly-L-Lysine coated flasks. The cells were washed after 2 days with PBS and incubated for another 7 days in plain medium. Afterwards the medium was replaced by plain medium with 33% L929 conditioned medium. After 2 days, cells were harvested by shaking them for 30 min at 150 rpm. The supernatant was centrifuged for 10 min at 129 g at 4° C. The cells were plated into a 96 well plate (100 000 cells/well, 200 μL medium per well). This procedure could be repeated 2 times with a 2 day interval.
(§2) Griess assay. Cells were seeded according to the protocols described above, after compounds and stimuli were added, 100 μl of supernatant was transferred into a new 96 well plate and 100 μl freshly mixed Griess reagent were added. Griess reagent was composed of reagent A (100 mg Naphthylethylene in 50 ml aqua dest.) and reagent B (1 g Sulfanilamide, […] H3PO4 (85%) in 44 mL aqua dest.) mixed 1:1. The solution was carefully mixed and the absorbance was determined in a microplate reader at a wavelength of 550 nm.
Dissolved sodium nitrite in plain medium served as a standard. Total amount of nitrite was calculated by a linear regression of the standard curve.
The activity of the compounds listed in column 1 of Table 1 as inhibitors of NO production was compared in murine primary cultured neonatal microglia as described above.

[2] = test system: primary cultured neonatal microglia; assay: PolyIC induced NO release, Griess assay; format: cell-based, mouse; conditions: for NO concentration, % of stimulated control: 100 μg/ml PolyIC 24 hours
Procedure: as §1, §2
In order to test whether C1 decreases NO release induced by other stimulation agents besides LPS which is mimicking a bacterial infection, the inventors used IFNγ to mimic a Th1 cell response (Yau et al., 2016) and PolyIC to mimic an anti-viral response (Jiang and Pisetsky, 2006). Given that our aim is to determine the compound's effect on already stimulated microglia (LPS, IFNγ, and PolyIC), each individual experiment is normalized to its stimulated control.

[3] = test system: bone marrow derived macrophages; assay: Cytokine release (IL1β, IL6, TNFα) ELISA in macrophages; format: cell-based, mouse; conditions: 1 μg/mL LPS 48 hours
Procedure: Primary cultured macrophages. Bone marrow macrophages were isolated from C57BL/6 adult mice (P49-56) as previously described (Marim et al., 2010). In summary, mice were killed by cervical dislocation and the femurs were removed by cutting through the tibia near the pelvic bone and below the knee. Any muscle connected to the bone was carefully removed. Ice cold sterile PBS was slowly flushed through the bone and the contents were collected in a sterile 15 mL polypropylene tube on ice. After centrifugation for 10 min at 200 g at 4° C., red blood cells were lysed by adding 3-10 mL ammonium chloride solution. After a 3-5 min recovery period, the suspension was centrifuged for 10 min at 200 g at 4° C. and the supernatant was removed. Cells were plated in a 10 cm dish with plain medium containing 10 ng/mL M-CSF and cultured for 7 days to allow differentiation. 50 000 cells were plated with 200 μL medium per well in a 96 well plate.
Enzyme-linked immunosorbent assay (ELISA). Cells were seeded according to the protocols described above, after compounds and stimuli were added, the supernatant was collected, centrifuged (500 g, 5 minutes) and stored at −20° C. until analysed. The following kits from Bio-Techne (Minneapolis, USA) were used to detect IL1β, IL6 and TNFα: ELISA Mouse IL-1β/IL-1F2 Duo Set, ELISA Mouse IL-6, ELISA Mouse TNFα. ELISA assays were performed according to the manufacturers protocol.

[4] = test system: oligodendrocyte cell line OLN-93; assay: AlamarBlue assay in OLN-93 cells; format: cell-based; conditions: 2.5 μM C1, 48 hours, unstimulated
Procedure: Cell culture of immortalized cell lines: microglia cell line BV2, and oligodendrocyte cell line OLN-93. The immortalized murine microglia cell line BV2 (Blasi et al., 1990) and the oligodendrocyte cell line OLN-93 (Richter-Landsberg and Heinrich, 1996) were incubated in T75 flasks with plain medium. The cells were split every 2 to 3 days at the dilution 1:10 before they reached confluence. To do so, the cells were washed twice with PBS, followed by up to 5 min of trypsination. The trypsination was stopped using plain medium. The cells were centrifuged at 300 g for 10 min at 4° C., the supernatant was discarded, and the cells were resuspended in new medium and seeded into a new flask.
AlamarBlue assay. Cells were seeded according to the protocols described above, after compounds and stimuli were added, the cells were washed once with HBSS (37° C.) and 100 μl of a 1:10 AlamarBlue (Thermo Fisher Scientific) dilution in plain medium was added. The conversion of resazurin to resorufin was measured by absorbance (absorbance wavelength of 570 nm and a reference wavelength of 600 nm) after 3 hours.
The inventors evaluated the metabolic activity, proliferation and cell death of primary cultured neonatal microglia, primary cultured neonatal astrocytes and the oligodendrocyte cell line OLN-93 under physiological conditions. […]

COc1ccc(NC(=O)C(NC(=O)C2CCCN2C(=O)OCc2ccccc2)c2ccc(OC)cc2)cc1 (centres unmarked) [C1]
IC50 [1]: 250 nM
NO release in unstimulated microglia ([1]; C1 alone 0.025, 0.25, 2.5 μM, 48 hours, no LPS): did not show any significant difference; also recorded: did neither change the NO release
IC50 ([1]; Mus musculus, Microglia): 252 nM
NO concentration in supernatant vs plain medium / DMSO ([1]; post-treatment with 2.5 μM C1 after 24 hours LPS, from 8 hours (plain medium), 12 hours (DMSO)): significantly reduced; also recorded: significant reduction
calculated plateau of NO concentration in supernatant ([1]; post-treatment: 24 hours LPS, medium change, then 2.5 μM C1 up to 60 hours): 7 µM
NO concentration, % of stimulated control ([2]; 25 nM C1): 66%
NO concentration, % of stimulated control ([2]; 250 nM C1): 29%
NO concentration, % of stimulated control ([2]; 2.5 μM C1): 25%
NO release upon stimulation with PolyIC ([2]; pre-treatment with C1): dose dependent decrease
LPS induced release of IL1β [3]: not changed; also recorded: Neither the treatment with C1 nor with DMSO showed any significant changes
LPS induced release of IL6 [3]: not changed; also recorded: Neither the treatment with C1 nor with DMSO showed any significant changes
reduction of TNFα release ([3]; 2.5 μM (highest concentration) C1): 9% and 5%
release of TNFα, % of positive control ([3]; 2.5 μM C1): 91%
metabolic activity of OLN-93 cells [4]: increased the metabolic activity in oligodendrocytes compared to DMSO (p=0.0431) but not compared to plain medium; also recorded: not affected
